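How tested: cells in 96-well plates exposed to compound for 48 hours at five concentrations. The concentration for 50% growth inhibition is given as GI50.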 Activity calls are given as the source filed them. Rule as the data show it: active = GI50 up to about 1.1 µM and inactive = higher.
Tests used:
Test in all cases: NCI tumour cell line growth inhibition, 48 h
SN12C = system: SN12C
OVCAR-3 = system: OVCAR-3
KM12 = system: KM12
HOP-92 = system: HOP-92
Malme-3M = system: Malme-3M
SW-620 = system: SW-620
A498 = system: A498
LOX IMVI = system: LOX IMVI
UACC-62 = system: UACC-62
OVCAR-8 = system: OVCAR-8
SNB-19 = system: SNB-19
SNB-75 = system: SNB-75
OVCAR-5 = system: OVCAR-5
U-251 = system: U-251
TK-10 = system: TK-10
SK-MEL-2 = system: SK-MEL-2
HCC 2998 = system: HCC 2998
NCI-H226 = system: NCI-H226

Measured: GI50

C=C(C)CC(C(=O)O)c1ccc(C)cc1 (stereo not given)
inactive: SN12C > 100 µM | OVCAR-3 > 100 µM | KM12 > 100 µM | HOP-92 > 100 µM | Malme-3M > 100 µM | SW-620 > 100 µM | A498 > 100 µM | LOX IMVI > 100 µM | UACC-62 > 100 µM | OVCAR-8 > 100 µM | SNB-19 > 100 µM | SNB-75 > 100 µM | OVCAR-5 > 100 µM | U-251 > 100 µM | TK-10 > 100 µM | SK-MEL-2 > 100 µM

NC(=O)/N=C1\NC(Cc2ccccc2)C(=O)N1Cc1ccccc1 (stereo not given)
inactive: SN12C > 100 µM | OVCAR-3 > 100 µM | HCC 2998 > 100 µM | KM12 > 100 µM | SW-620 > 100 µM | LOX IMVI > 100 µM | UACC-62 > 100 µM | OVCAR-8 > 100 µM | NCI-H226 > 100 µM | SNB-19 > 100 µM | SNB-75 89.9 µM | OVCAR-5 > 100 µM | U-251 > 100 µM | TK-10 > 100 µM

COc1cc(-c2cc(=O)c3cc(C)c(C)c(C(=O)O)c3o2)cc(OC)c1OC
inactive: SN12C > 100 µM | OVCAR-3 > 100 µM | HCC 2998 > 100 µM | KM12 > 100 µM | HOP-92 > 100 µM | Malme-3M > 100 µM | SW-620 > 100 µM | A498 > 100 µM | LOX IMVI > 100 µM | UACC-62 > 100 µM | OVCAR-8 > 100 µM | SNB-19 > 100 µM | SNB-75 2.32 µM | OVCAR-5 > 100 µM | U-251 > 100 µM | TK-10 > 100 µM | SK-MEL-2 > 100 µM

O=C(c1ccccc1)c1nnc(C(=O)c2ccccc2)nn1
inactive: SN12C > 344 µM | OVCAR-3 > 344 µM | HCC 2998 36.3 µM | KM12 > 344 µM | HOP-92 166 µM | Malme-3M > 344 µM | SW-620 > 344 µM | LOX IMVI 282 µM | UACC-62 > 344 µM | OVCAR-8 > 344 µM | NCI-H226 > 344 µM | SNB-19 > 344 µM | SNB-75 83.4 µM | OVCAR-5 > 344 µM | U-251 165 µM | TK-10 > 344 µM | SK-MEL-2 > 344 µM

CCOc1cccc2cccnc12
inactive: SN12C > 100 µM | OVCAR-3 > 100 µM | HCC 2998 > 100 µM | KM12 > 100 µM | HOP-92 > 100 µM | Malme-3M > 100 µM | SW-620 > 100 µM | LOX IMVI > 100 µM | UACC-62 > 100 µM | OVCAR-8 > 100 µM | NCI-H226 > 100 µM | SNB-19 > 100 µM | SNB-75 > 100 µM | OVCAR-5 > 100 µM | TK-10 > 100 µM

CC1C(c2ccccc2)=CCON1c1ccccc1 (stereo not given)
inactive: SN12C > 100 µM | OVCAR-3 > 100 µM | HCC 2998 > 100 µM | KM12 > 100 µM | Malme-3M > 100 µM | SW-620 > 100 µM | LOX IMVI > 100 µM | UACC-62 > 100 µM | OVCAR-8 > 100 µM | NCI-H226 > 100 µM | SNB-19 > 100 µM | SNB-75 > 100 µM | OVCAR-5 > 100 µM | U-251 > 100 µM | SK-MEL-2 > 100 µM

CCCCCCCCCCCCCCCCc1c(C(=O)OC)[nH]c(=S)[nH]c1=O
inactive: SN12C > 50 µM | OVCAR-3 > 50 µM | HCC 2998 > 50 µM | KM12 > 50 µM | HOP-92 12.1 µM | Malme-3M > 50 µM | SW-620 > 50 µM | A498 > 50 µM | LOX IMVI > 50 µM | UACC-62 > 50 µM | OVCAR-8 > 50 µM | SNB-19 > 50 µM | SNB-75 > 50 µM | OVCAR-5 > 50 µM | U-251 > 50 µM | TK-10 > 50 µM | SK-MEL-2 > 50 µM

CN(C)CCC(CCN(C)C)=NO
inactive: SN12C > 100 µM | OVCAR-3 > 100 µM | HCC 2998 > 100 µM | KM12 > 100 µM | Malme-3M > 100 µM | SW-620 > 100 µM | A498 > 100 µM | UACC-62 > 100 µM | OVCAR-8 > 100 µM | SNB-19 > 100 µM | SNB-75 > 100 µM | U-251 > 100 µM | TK-10 > 100 µM | SK-MEL-2 > 100 µM

CSC1=NC=CCN1C
inactive: SN12C > 100 µM | OVCAR-3 > 100 µM | HCC 2998 > 100 µM | KM12 > 100 µM | Malme-3M > 100 µM | SW-620 > 100 µM | A498 > 100 µM | LOX IMVI > 100 µM | UACC-62 > 100 µM | OVCAR-8 > 100 µM | NCI-H226 > 100 µM | SNB-19 > 100 µM | SNB-75 > 100 µM | OVCAR-5 > 100 µM | U-251 > 100 µM | TK-10 > 100 µM | SK-MEL-2 > 100 µM

CCCCCCCCC(=O)CCCCCCCCC(=O)O
inactive: SN12C 25.6 µM | OVCAR-3 18.8 µM | KM12 17.3 µM | HOP-92 18.9 µM | Malme-3M 31.3 µM | SW-620 39.7 µM | A498 23.9 µM | LOX IMVI 14.8 µM | UACC-62 20.1 µM | OVCAR-8 17.3 µM | NCI-H226 27.2 µM | SNB-19 61.1 µM | SNB-75 37.2 µM | OVCAR-5 24.8 µM | U-251 25.1 µM | TK-10 33.3 µM | SK-MEL-2 36.1 µM

COC1CCCc2c(OC(C)=O)ccc(OC(C)=O)c21 (stereo not given)
inactive: SN12C > 100 µM | OVCAR-3 > 100 µM | HCC 2998 > 100 µM | KM12 > 100 µM | HOP-92 19.6 µM | Malme-3M > 100 µM | SW-620 > 100 µM | LOX IMVI > 100 µM | UACC-62 > 100 µM | NCI-H226 > 100 µM | SNB-19 > 100 µM | SNB-75 > 100 µM | OVCAR-5 > 100 µM | U-251 > 100 µM | TK-10 > 100 µM | SK-MEL-2 > 100 µM

CC(=O)OCC12CC(CC1OC(C)=O)c1ccccc12 (stereo not given)
inactive: SN12C > 100 µM | OVCAR-3 > 100 µM | HCC 2998 > 100 µM | HOP-92 > 100 µM | Malme-3M > 100 µM | SW-620 > 100 µM | A498 > 100 µM | LOX IMVI > 100 µM | UACC-62 > 100 µM | OVCAR-8 > 100 µM | NCI-H226 > 100 µM | SNB-19 > 100 µM | OVCAR-5 > 100 µM | U-251 > 100 µM | TK-10 > 100 µM

CCOC(=O)C(Cc1cn(S(=O)(=O)c2ccccc2)c2ccccc12)(NC(C)=O)C(=O)OCC
inactive: OVCAR-3 34 µM | HCC 2998 34 µM | KM12 29.4 µM | HOP-92 19.8 µM | Malme-3M 37.9 µM | SW-620 54.2 µM | UACC-62 27.9 µM | OVCAR-8 33 µM | NCI-H226 21.3 µM | SNB-19 34.8 µM | SNB-75 8.18 µM | OVCAR-5 > 100 µM | U-251 40.1 µM | TK-10 65.5 µM | SK-MEL-2 30.6 µM

— ChEMBL document CHEMBL1201862, “PubChem BioAssay data set” (2004)
